Data reported in US20240376091A1, “THIADIAZOLEAMIDE DERIVATIVES AND THEIR APPLICATIONS” (ZHEJIANG UNIVERSITY, priority 2021, published 2024).

Target: T1, AR (Homo sapiens, UniProt P10275, T878A)
T1 construct: into the androgen-dependent PCa cells (LNCaP); endogenous in cells; host or cells: LNCaP-ARR2PB-eGFP
T1 sequence (P10275 1-920 T878A): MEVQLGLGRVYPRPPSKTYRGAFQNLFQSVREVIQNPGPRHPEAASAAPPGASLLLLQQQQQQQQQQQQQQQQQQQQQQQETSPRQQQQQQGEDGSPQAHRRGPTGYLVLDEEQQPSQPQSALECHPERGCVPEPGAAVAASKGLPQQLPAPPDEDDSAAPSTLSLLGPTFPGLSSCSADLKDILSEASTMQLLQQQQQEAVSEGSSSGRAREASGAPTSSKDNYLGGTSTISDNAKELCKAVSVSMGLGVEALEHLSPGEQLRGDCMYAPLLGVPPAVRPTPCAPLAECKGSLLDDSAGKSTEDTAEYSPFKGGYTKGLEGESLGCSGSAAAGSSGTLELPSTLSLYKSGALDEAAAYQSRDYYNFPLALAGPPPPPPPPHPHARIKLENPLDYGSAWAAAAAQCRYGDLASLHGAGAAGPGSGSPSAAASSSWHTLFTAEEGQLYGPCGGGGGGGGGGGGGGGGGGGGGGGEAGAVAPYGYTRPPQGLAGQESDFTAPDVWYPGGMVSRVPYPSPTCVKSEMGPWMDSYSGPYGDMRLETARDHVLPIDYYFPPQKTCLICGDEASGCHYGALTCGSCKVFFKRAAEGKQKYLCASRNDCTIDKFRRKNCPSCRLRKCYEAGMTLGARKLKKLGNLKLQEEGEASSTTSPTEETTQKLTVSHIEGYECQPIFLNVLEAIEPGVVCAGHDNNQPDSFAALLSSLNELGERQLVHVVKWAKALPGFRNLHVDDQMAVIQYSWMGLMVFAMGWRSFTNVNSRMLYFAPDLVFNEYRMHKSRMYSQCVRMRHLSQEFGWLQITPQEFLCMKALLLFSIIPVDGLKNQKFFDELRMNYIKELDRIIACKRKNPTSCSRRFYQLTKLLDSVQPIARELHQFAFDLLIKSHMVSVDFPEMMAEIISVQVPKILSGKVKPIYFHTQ
Assay: AR transcriptional activity, LNCaP-ARR2PB-eGFP reporter cells
Assay type: cell-based
Conditions: read-out: IC50 AR transcriptional activities
From the text: Detection principles: We conducted a stable transfection of promoter ARR2PB known for its strong AR responsiveness, into the androgen-dependent PCa cells (LNCaP). The expression of enhanced green fluorescent protein (eGFP) is depending on the degree of activation of AR. Therefore, LNCaP-ARR2PB-eGFP cell line could quantitatively determine the AR antagonistic activities of the compounds by evaluating the expression of eGFP.

Compound | IC50 [µM]
Cc1oc(C(=O)Nc2nc(CC(C)O)ns2)cc1-c1cccc(C(F)(F)F)c1 (centres unmarked) [Compound F-11, N-(3-(2-hydroxypropyl)-1,2,4-thiadiazol-5-yl)-5-methyl-4-(3-(trifluoromethyl)phenyl) furan-2-carboxamide] | 22.3
Cc1oc(C(=O)Nc2nc(CC(C)(O)C(F)(F)F)ns2)cc1-c1cccc(C(F)(F)F)c1 (centres unmarked) [Compound F-13, 5-Methyl-N-(3-(3,3,3-trifluoro-2-hydroxy-2-methylpropyl)-1,2,4-thiadiazol-5-yl)-4-(3-(tri-fluoromethyl)phenyl)furan-2-carboxamide] | 31.5
COc1cccc(-c2cc(C(=O)Nc3nc(CC(C)=C(F)F)ns3)oc2C)c1 [Compound F-15, N-(3-(3,3-difluoro-2-methylallyl)-1,2,4-thiadiazol-5-yl)-4-(3-methoxyphenyl)-5-methyl-furan-2-carboxamide] | 35.9
Cc1oc(C(=O)Nc2nc(CC(C)(F)F)ns2)cc1-c1cccc(OC(F)(F)F)c1 [Compound F-17, N-(3-(2,2-difluoropropyl)-1,2,4-thiadiazol-5-yl)-5-methyl-4-(3-(trifluoromethoxy)phenyl)furan-2-carboxamide] | 25
Cc1oc(C(=O)Nc2nc(CCl)ns2)cc1-c1cccc(C(F)(F)F)c1 [Compound F-19, N-(3-(chloromethyl)-1,2,4-thiadiazol-5-yl)-5-methyl-4-(3-(trifluoromethyl)phenyl)furan-2-carboxamide] | 19.1
Cc1oc(C(=O)Nc2nc(CN3CCCC3)ns2)cc1-c1cccc(C(F)(F)F)c1 [Compound F-24, 5-Methyl-N-(3-(pyrrolidin-1-ylmethyl)-1,2,4-thiadiazol-5-yl)-4-(3-(trifluoromethyl)phenyl)furan-2-carboxamide] | 35.2
Cc1oc(C(=O)Nc2nc(CN3CCCCC3)ns2)cc1-c1cccc(C#N)c1 [Compound F-25, 4-(3-Cyanophenyl)-5-methyl-N-(3-(piperidin-1-ylmethyl)-1,2,4-thiadiazol-5-yl)furan-2-carboxamide] | 15.5
COc1cccc(-c2cc(C(=O)Nc3nc(CN4CCOCC4)ns3)oc2C)c1 [Compound F-26, 4-(3-Methoxyphenyl)-5-methyl-N-(3-(morpholinomethyl)-1,2,4-thiadiazol-5-yl)furan-2-carboxamide] | 31.9
Cc1oc(C(=O)Nc2nc(CN3CCOCC3)ns2)cc1-c1cccc(OC(F)(F)F)c1 [Compound F-27, 5-Methyl-N-(3-(morpholinomethyl)-1,2,4-thiadiazol-5-yl)-4-(3-(trifluoromethoxy)phenyl)furan-2-carboxamide] | 15.6
Cc1oc(C(=O)Nc2nc(CN3CCN(C)CC3)ns2)cc1-c1cccc(OC(F)F)c1 [Compound F-28, 4-(3-(Difluoromethoxy)phenyl)-5-methyl-N-(3-((4-methylpiperazin-1-yl)methyl)-1,2,4-thiadiazol-5-yl)furan-2-carboxamide] | 16.4

The remaining lines, values ahead:

IC50 [µM] | Compound
35.5 | CC(=O)Cc1nsc(NC(=O)c2cc(-c3cccc(C#N)c3)co2)n1 [Compound G-2, 4-(3-Cyanophenyl)-N-(3-(2-oxopropyl)-1,2,4-thiadiazol-5-yl)furan-2-carboxamide]
33.6 | COc1cccc(-c2coc(C(=O)Nc3nc(CC(C)=O)ns3)c2)c1 [Compound G-3, 4-(3-Methoxyphenyl)-N-(3-(2-oxopropyl)-1,2,4-thiadiazol-5-yl)furan-2-carboxamide]
11.6 | CC(=O)Cc1nsc(NC(=O)c2cc(-c3cccc(OC(F)(F)F)c3)co2)n1 [Compound G-4, N-(3-(2-oxopropyl)-1,2,4-thiadiazol-5-yl)-4-(3-(trifluoromethoxy)phenyl)furan-2-carboxamide]
32.7 | CC(=O)Cc1nsc(NC(=O)c2cc(-c3cccc(OC(F)F)c3)co2)n1 [Compound G-5, 4-(3-(Difluoromethoxy)phenyl)-N-(3-(2-oxopropyl)-1,2,4-thiadiazol-5-yl)furan-2-carboxamide]
13.9 | CC(Cc1nsc(NC(=O)c2cc(-c3cccc(C(F)(F)F)c3)co2)n1)N1CCCC1 (centres unmarked) [Compound G-6, N-(3-(2-(pyrrolidin-1-yl)propyl)-1,2,4-thiadiazol-5-yl)-4-(3-(trifluoromethyl)phenyl) furan-2-carboxamide]
23.2 | CC(Cc1nsc(NC(=O)c2cc(-c3cccc(C#N)c3)co2)n1)N1CCCCC1 (centres unmarked) [Compound G-7, 4-(3-Cyanophenyl)-N-(3-(2-(piperidin-1-yl)propyl)-1,2,4-thiadiazol-5-yl)furan-2-carboxamide]
19.2 | COc1cccc(-c2coc(C(=O)Nc3nc(CC(C)N4CCOCC4)ns3)c2)c1 (centres unmarked) [Compound G-8, 4-(3-Methoxyphenyl)-N-(3-(2-morpholinopropyl)-1,2,4-thiadiazol-5-yl)furan-2-carboxamide]
47.2 | CC(Cc1nsc(NC(=O)c2cc(-c3cccc(OC(F)(F)F)c3)co2)n1)N1CCN(C)CC1 (centres unmarked) [Compound G-9, N-(3-(2-(4-methylpiperazin-1-yl)propyl)-1,2,4-thiadiazol-5-yl)-4-(3-(trifluoromethoxy)phenyl)furan-2-carboxamide]
15.3 | CC(Cc1nsc(NC(=O)c2cc(-c3cccc(OC(F)F)c3)co2)n1)N1CCN(C)CC1 (centres unmarked) [Compound G-10, 4-(3-(Difluoromethoxy)phenyl)-N-(3-(2-(4-methylpiperazin-1-yl)propyl)-1,2,4-thiadiazol-5-yl)furan-2-carboxamide]
29.3 | CC(O)Cc1nsc(NC(=O)c2cc(-c3cccc(C(F)(F)F)c3)co2)n1 (centres unmarked) [Compound G-11, N-(3-(2-hydroxypropyl)-1,2,4-thiadiazol-5-yl)-4-(3-(trifluoromethyl)phenyl)furan-2-carboxamide]
22 | CC(O)(Cc1nsc(NC(=O)c2cc(-c3cccc(C#N)c3)co2)n1)C(F)(F)F (centres unmarked) [Compound G-13, 4-(3-Cyanophenyl)-N-(3-(3,3,3-trifluoro-2-hydroxy-2-methylpropyl)-1,2,4-thiadiazol-5-yl) furan-2-carboxamide]
24.1 | COc1cccc(-c2coc(C(=O)Nc3nc(CC(C)=C(F)F)ns3)c2)c1 [Compound G-15, N-(3-(3,3-difluoro-2-methylallyl)-1,2,4-thiadiazol-5-yl)-4-(3-methoxyphenyl)furan-2-carboxamide]
23 | CC(F)(F)Cc1nsc(NC(=O)c2cc(-c3cccc(OC(F)(F)F)c3)co2)n1 [Compound G-17, N-(3-(2,2-difluoropropyl)-1,2,4-thiadiazol-5-yl)-4-(3-(trifluoromethoxy)phenyl)furan-2-carboxamide]
31.4 | O=C(Nc1nc(CCl)ns1)c1cc(-c2cccc(C(F)(F)F)c2)co1 [Compound G-19, N-(3-(chloromethyl)-1,2,4-thiadiazol-5-yl)-4-(3-(trifluoromethyl)phenyl)furan-2-carboxamide]
24.2 | O=C(Nc1nc(CN2CCCC2)ns1)c1cc(-c2cccc(C(F)(F)F)c2)co1 [Compound G-24, N-(3-(pyrrolidin-1-ylmethyl)-1,2,4-thiadiazol-5-yl)-4-(3-(trifluoromethyl)phenyl)furan-2-carboxamide]
19.8 | N#Cc1cccc(-c2coc(C(=O)Nc3nc(CN4CCCCC4)ns3)c2)c1 [Compound G-25, 4-(3-Cyanophenyl)-N-(3-(piperidin-1-ylmethyl)-1,2,4-thiadiazol-5-yl)furan-2-carboxamide]
